# Test results from the NIST ThermoML archive (doi:10.1021/acs.jced.5b00105).
# ± gives the expanded uncertainty stated by the source.
# Test: xn = mol fraction of the nth substance listed
# Conditions: for surface tension liquid-gas: Drop volume; for viscosity / mass density: 100 kPa, Liquid; for viscosity: Concentric cylinders viscometry; for mass density: Vibrating tube method
compound,measurement,setting,value
CCC1CCCCC1 [ethylcyclohexane] + CC(C)CC(C)(C)C,surface tension liquid-gas,"293.15 K, x1 = 0.1",19.51 ± 0.24 mN/m
same,surface tension liquid-gas,"293.15 K, x1 = 0.1999",19.99 ± 0.24 mN/m
same,surface tension liquid-gas,"293.15 K, x1 = 0.3",20.57 ± 0.24 mN/m
same,surface tension liquid-gas,"293.15 K, x1 = 0.4",21.13 ± 0.24 mN/m
same,surface tension liquid-gas,"293.15 K, x1 = 0.5",21.74 ± 0.24 mN/m
same,surface tension liquid-gas,"293.15 K, x1 = 0.6001",22.44 ± 0.24 mN/m
same,surface tension liquid-gas,"293.15 K, x1 = 0.7004",23.16 ± 0.24 mN/m
same,surface tension liquid-gas,"293.15 K, x1 = 0.8001",24 ± 0.24 mN/m
same,surface tension liquid-gas,"293.15 K, x1 = 0.8994",24.75 ± 0.24 mN/m
same,surface tension liquid-gas,"293.15 K, x1 = 1",25.47 ± 0.24 mN/m
same,viscosity,"293.15 K, x1 = 0.1",0.54 ± 0.087 mPa·s
same,viscosity,"293.15 K, x1 = 0.2",0.565 ± 0.091 mPa·s
same,viscosity,"293.15 K, x1 = 0.3003",0.591 ± 0.095 mPa·s
same,viscosity,"293.15 K, x1 = 0.3997",0.619 ± 0.099 mPa·s
same,viscosity,"293.15 K, x1 = 0.5002",0.65 ± 0.1 mPa·s
same,viscosity,"293.15 K, x1 = 0.6005",0.684 ± 0.11 mPa·s
same,viscosity,"293.15 K, x1 = 0.7002",0.719 ± 0.12 mPa·s
same,viscosity,"293.15 K, x1 = 0.8003",0.758 ± 0.12 mPa·s
same,viscosity,"293.15 K, x1 = 0.8997",0.801 ± 0.13 mPa·s
same,viscosity,"293.15 K, x1 = 1",0.848 ± 0.14 mPa·s
same,mass density,"293.15 K, x1 = 0.1",700.76 ± 0.19 kg/m3
same,mass density,"293.15 K, x1 = 0.2",709.8 ± 0.18 kg/m3
same,mass density,"293.15 K, x1 = 0.3003",719.07 ± 0.18 kg/m3
same,mass density,"293.15 K, x1 = 0.3997",728.38 ± 0.17 kg/m3
same,mass density,"293.15 K, x1 = 0.5002",737.96 ± 0.17 kg/m3
same,mass density,"293.15 K, x1 = 0.6005",747.68 ± 0.16 kg/m3
same,mass density,"293.15 K, x1 = 0.7002",757.5 ± 0.16 kg/m3
same,mass density,"293.15 K, x1 = 0.8003",767.49 ± 0.15 kg/m3
same,mass density,"293.15 K, x1 = 0.8997",777.58 ± 0.15 kg/m3
same,mass density,"293.15 K, x1 = 1",787.98 ± 0.15 kg/m3
same,surface tension liquid-gas,"298.15 K, x1 = 0.1",18.91 ± 0.24 mN/m
same,surface tension liquid-gas,"298.15 K, x1 = 0.1999",19.38 ± 0.24 mN/m
same,surface tension liquid-gas,"298.15 K, x1 = 0.3",19.88 ± 0.24 mN/m
same,surface tension liquid-gas,"298.15 K, x1 = 0.4",20.4 ± 0.24 mN/m
same,surface tension liquid-gas,"298.15 K, x1 = 0.5",21.01 ± 0.24 mN/m
same,surface tension liquid-gas,"298.15 K, x1 = 0.6001",21.67 ± 0.24 mN/m
same,surface tension liquid-gas,"298.15 K, x1 = 0.7004",22.45 ± 0.24 mN/m
same,surface tension liquid-gas,"298.15 K, x1 = 0.8001",23.23 ± 0.24 mN/m
same,surface tension liquid-gas,"298.15 K, x1 = 0.8994",24 ± 0.24 mN/m
same,surface tension liquid-gas,"298.15 K, x1 = 1",24.76 ± 0.24 mN/m
same,viscosity,"298.15 K, x1 = 0.1",0.513 ± 0.082 mPa·s
same,viscosity,"298.15 K, x1 = 0.2",0.536 ± 0.086 mPa·s
same,viscosity,"298.15 K, x1 = 0.3003",0.56 ± 0.09 mPa·s
same,viscosity,"298.15 K, x1 = 0.3997",0.586 ± 0.094 mPa·s
same,viscosity,"298.15 K, x1 = 0.5002",0.613 ± 0.098 mPa·s
same,viscosity,"298.15 K, x1 = 0.6005",0.644 ± 0.1 mPa·s
same,viscosity,"298.15 K, x1 = 0.7002",0.677 ± 0.11 mPa·s
same,viscosity,"298.15 K, x1 = 0.8003",0.712 ± 0.11 mPa·s
same,viscosity,"298.15 K, x1 = 0.8997",0.751 ± 0.12 mPa·s
same,viscosity,"298.15 K, x1 = 1",0.793 ± 0.13 mPa·s
same,mass density,"298.15 K, x1 = 0.1",696.71 ± 0.19 kg/m3
same,mass density,"298.15 K, x1 = 0.2",705.71 ± 0.18 kg/m3
same,mass density,"298.15 K, x1 = 0.3003",715.02 ± 0.18 kg/m3
same,mass density,"298.15 K, x1 = 0.3997",724.34 ± 0.17 kg/m3
same,mass density,"298.15 K, x1 = 0.5002",733.9 ± 0.17 kg/m3
same,mass density,"298.15 K, x1 = 0.6005",743.64 ± 0.16 kg/m3
same,mass density,"298.15 K, x1 = 0.7002",753.47 ± 0.16 kg/m3
same,mass density,"298.15 K, x1 = 0.8003",763.46 ± 0.16 kg/m3
same,mass density,"298.15 K, x1 = 0.8997",773.57 ± 0.15 kg/m3
same,mass density,"298.15 K, x1 = 1",783.97 ± 0.15 kg/m3
same,surface tension liquid-gas,"303.15 K, x1 = 0.1",18.49 ± 0.24 mN/m
same,surface tension liquid-gas,"303.15 K, x1 = 0.2",18.96 ± 0.24 mN/m
same,surface tension liquid-gas,"303.15 K, x1 = 0.3003",19.61 ± 0.24 mN/m
same,surface tension liquid-gas,"303.15 K, x1 = 0.3997",19.97 ± 0.24 mN/m
same,surface tension liquid-gas,"303.15 K, x1 = 0.5002",20.62 ± 0.24 mN/m
same,surface tension liquid-gas,"303.15 K, x1 = 0.6005",21.24 ± 0.24 mN/m
same,surface tension liquid-gas,"303.15 K, x1 = 0.7002",22.12 ± 0.24 mN/m
same,surface tension liquid-gas,"303.15 K, x1 = 0.8003",22.89 ± 0.24 mN/m
same,surface tension liquid-gas,"303.15 K, x1 = 0.8997",23.75 ± 0.24 mN/m
same,surface tension liquid-gas,"303.15 K, x1 = 1",24.55 ± 0.24 mN/m
same,viscosity,"303.15 K, x1 = 0.1",0.489 ± 0.078 mPa·s
same,viscosity,"303.15 K, x1 = 0.2",0.509 ± 0.082 mPa·s
same,viscosity,"303.15 K, x1 = 0.3003",0.531 ± 0.085 mPa·s
same,viscosity,"303.15 K, x1 = 0.3997",0.555 ± 0.089 mPa·s
same,viscosity,"303.15 K, x1 = 0.5002",0.581 ± 0.093 mPa·s
same,viscosity,"303.15 K, x1 = 0.6005",0.609 ± 0.098 mPa·s
same,viscosity,"303.15 K, x1 = 0.7002",0.638 ± 0.1 mPa·s
same,viscosity,"303.15 K, x1 = 0.8003",0.671 ± 0.11 mPa·s
same,viscosity,"303.15 K, x1 = 0.8997",0.706 ± 0.11 mPa·s
same,viscosity,"303.15 K, x1 = 1",0.745 ± 0.12 mPa·s
same,mass density,"303.15 K, x1 = 0.1",692.57 ± 0.19 kg/m3
same,mass density,"303.15 K, x1 = 0.2",701.62 ± 0.18 kg/m3
same,mass density,"303.15 K, x1 = 0.3003",710.92 ± 0.18 kg/m3
same,mass density,"303.15 K, x1 = 0.3997",720.25 ± 0.17 kg/m3
same,mass density,"303.15 K, x1 = 0.5002",729.84 ± 0.17 kg/m3
same,mass density,"303.15 K, x1 = 0.6005",739.57 ± 0.16 kg/m3
same,mass density,"303.15 K, x1 = 0.7002",749.4 ± 0.16 kg/m3
same,mass density,"303.15 K, x1 = 0.8003",759.41 ± 0.16 kg/m3
same,mass density,"303.15 K, x1 = 0.8997",769.52 ± 0.15 kg/m3
same,mass density,"303.15 K, x1 = 1",779.93 ± 0.15 kg/m3
same,surface tension liquid-gas,"308.15 K, x1 = 0.1",18 ± 0.23 mN/m
same,surface tension liquid-gas,"308.15 K, x1 = 0.1999",18.45 ± 0.23 mN/m
same,surface tension liquid-gas,"308.15 K, x1 = 0.3",18.91 ± 0.23 mN/m
same,surface tension liquid-gas,"308.15 K, x1 = 0.4",19.39 ± 0.23 mN/m
same,surface tension liquid-gas,"308.15 K, x1 = 0.5",19.98 ± 0.24 mN/m
same,surface tension liquid-gas,"308.15 K, x1 = 0.6001",20.65 ± 0.24 mN/m
same,surface tension liquid-gas,"308.15 K, x1 = 0.7004",21.4 ± 0.24 mN/m
same,surface tension liquid-gas,"308.15 K, x1 = 0.8001",22.11 ± 0.24 mN/m
same,surface tension liquid-gas,"308.15 K, x1 = 0.8994",22.94 ± 0.24 mN/m
same,surface tension liquid-gas,"308.15 K, x1 = 1",23.74 ± 0.24 mN/m
same,viscosity,"308.15 K, x1 = 0.1",0.466 ± 0.075 mPa·s
same,viscosity,"308.15 K, x1 = 0.2",0.485 ± 0.078 mPa·s
same,viscosity,"308.15 K, x1 = 0.3003",0.505 ± 0.081 mPa·s
same,viscosity,"308.15 K, x1 = 0.3997",0.527 ± 0.084 mPa·s
same,viscosity,"308.15 K, x1 = 0.5002",0.55 ± 0.088 mPa·s
same,viscosity,"308.15 K, x1 = 0.6005",0.577 ± 0.092 mPa·s
same,viscosity,"308.15 K, x1 = 0.7002",0.604 ± 0.097 mPa·s
same,viscosity,"308.15 K, x1 = 0.8003",0.634 ± 0.1 mPa·s
same,viscosity,"308.15 K, x1 = 0.8997",0.666 ± 0.11 mPa·s
same,viscosity,"308.15 K, x1 = 1",0.702 ± 0.11 mPa·s
